Experimental data published in publication PMC12040169 (PLOS Biology, 2025).

Assay: in vitro
Details: human, hela cells, % viability

**Q.** With `COc1cc(NC(=O)N[C@@H]2CN(C)C[C@H]2c2ccc(OC)c(OC)c2)cc(OC)c1` [CBK081112] as the compound, how does the viability at 28.5 h, 10 µM read?
**A.** 93%

**Q.** For `CC1(C)CC(=O)C=C(SCC(=O)C(C)(C)C)S1` [CBK005523], which viability at 28.5 h, 10 µM is on record?
**A.** 106%

**Q.** For `CN(C)c1ccccc1-c1cc(Nc2ccc3cn[nH]c3c2)ncn1` [CBK090850], which viability at 28.5 h, 10 µM is on record?
**A.** 55.7%

**Q.** Which viability at 28.5 h, 10 µM does the source give for `N#Cc1ccc(C(=O)N2C[C@@H]3C[C@H](C2)c2ccc(-c4cccs4)c(=O)n2C3)cc1` [CBK289180] here?
**A.** 86%

**Q.** Which viability at 28.5 h, 10 µM does the source give for `CC(=O)Nc1ccc(NCc2ncc(C(C)(C)C)o2)c(Cl)c1` [CBK306135] here?
**A.** 98.6%

**Q.** Which viability at 28.5 h, 10 µM does the source give for `Cc1cc(=O)n(CC(=O)NCCn2ccnc2)c2ccccc12` [CBK281583] here?
**A.** 94.3%

**Q.** For `COCCN1C(=O)C2(CC(=O)N(CCCN3C(=O)CCC3=O)C2=O)c2ccccc21` (stereo not drawn) [CBK075333], which viability at 28.5 h, 10 µM is on record?
**A.** 117%

**Q.** For `CCN1CC2(CCCN(Cc3nnc(-c4cccnc4)o3)C2)CCC1=O` (stereo not drawn) [CBK306881], which viability at 28.5 h, 10 µM is on record?
**A.** 86.4%

**Q.** Which viability at 28.5 h, 10 µM does the source give for `CC(=O)NCc1ccc(-c2ccc(C(=O)NCc3ccc4[nH]c(C)c(C)c4c3)c(C)n2)cc1` [CBK285888] here?
**A.** 72.1%

**Q.** With `O=C(c1cc2c(s1)CCC2)N1CCC[C@H]1[C@H](O)c1nccs1` [CBK284287] as the compound, how does the viability at 28.5 h, 10 µM read?
**A.** 92.5%

**Q.** Which viability at 28.5 h, 10 µM does the source give for `CS(=O)(=O)c1ccc(CN2CC[C@H](c3nc4ncccc4[nH]3)C2)cc1` [CBK289385] here?
**A.** 101%

**Q.** With `CCCCOc1ccc(S(=O)(=O)Nc2ccc(-c3cn4ccccc4n3)cc2)cc1` [CBK264374] as the compound, how does the viability at 28.5 h, 10 µM read?
**A.** 88.9%

**Q.** Which viability at 28.5 h, 10 µM does the source give for `Cc1c(C(=O)N2CCn3c(C)nnc3C2)sc2cccc(F)c12` [CBK304923] here?
**A.** 87.5%

**Q.** With `Cn1c2ccccc2c2ncn(CCS)c(=O)c21` [CBK288412] as the compound, how does the viability at 28.5 h, 10 µM read?
**A.** 114%

**Q.** With `CCOc1cc(S(=O)(=O)NCCCn2ccnc2)ccc1Cl` [CBK269874] as the compound, how does the viability at 28.5 h, 10 µM read?
**A.** 89%

**Q.** Which viability at 28.5 h, 10 µM does the source give for `CC1CCCCC1NC(=O)Cn1ncn2c(cc3ccsc32)c1=O` (stereo not drawn) [CBK284196] here?
**A.** 91.8%

**Q.** For `CCN(CC)S(=O)(=O)c1cc(C(=O)NC2CCCCC2)ccc1Br` [CBK058354], which viability at 28.5 h, 10 µM is on record?
**A.** 96.3%

**Q.** With `COc1ccc([C@@]23CCC(N)C[C@@H]2N(C)CC3)cc1OC` (stereo partly drawn) [CBK003576] as the compound, how does the viability at 28.5 h, 10 µM read?
**A.** 114%

**Q.** For `CN1CCC(CNC(=O)C2(c3ccccc3F)CC2)(N(C)C)CC1` [CBK282604], which viability at 28.5 h, 10 µM is on record?
**A.** 91.6%

**Q.** With `COc1ccc(CNC(=O)CCn2c(=O)oc3ccccc32)cc1` [CBK270138] as the compound, how does the viability at 28.5 h, 10 µM read?
**A.** 92.7%

**Q.** Which viability at 28.5 h, 10 µM does the source give for `CC(=O)N(C)c1nc(-c2cccc(N(C)C)c2)ccc1C(=O)NCc1cccnc1` [CBK076639] here?
**A.** 101%

**Q.** For `O=C(O)c1[nH]c2ccccc2c1NS(=O)(=O)c1ccc(Br)cc1` [CBK049878], which viability at 28.5 h, 10 µM is on record?
**A.** 61.1%

**Q.** For `C=C(C)Cn1c(SCC(C)C)nnc1-c1ccccc1OC(F)(F)F` [CBK200080], which viability at 28.5 h, 10 µM is on record?
**A.** 97.7%

**Q.** Which viability at 28.5 h, 10 µM does the source give for `O=c1[nH]c(Nc2ccccc2)nc2nccc(-c3ccccc3)c12` [CBK288072] here?
**A.** 88.8%

**Q.** Which viability at 28.5 h, 10 µM does the source give for `O=C(NCc1ccco1)c1cc(S(=O)(=O)N2CCOCC2)ccc1Br` [CBK269907] here?
**A.** 90.7%

**Q.** For `COCCn1c(CO)nnc1[C@H]1C[C@@H](NC(=O)c2cc(O)ccc2F)C1` [CBK307698], which viability at 28.5 h, 10 µM is on record?
**A.** 90.4%

**Q.** Which viability at 28.5 h, 10 µM does the source give for `CC(C)OC(=O)c1nnn(-c2nonc2N)c1CN1CCCCCC1` [CBK027601] here?
**A.** 94%

**Q.** Which viability at 28.5 h, 10 µM does the source give for `CN(C)CCN1CCN(c2nc(-c3ccc4c(c3)OCO4)cnc2N)CC1` [CBK063495] here?
**A.** 93.9%

**Q.** With `CC(NC(=O)CCC(=O)O)C12CC3CC(CC(C3)C1)C2` (stereo not drawn) [CBK287105] as the compound, how does the viability at 28.5 h, 10 µM read?
**A.** 97.9%

**Q.** With `Cn1c(C(=O)OCC(=O)NC(C)(C)C)cc2occc21` [CBK284015] as the compound, how does the viability at 28.5 h, 10 µM read?
**A.** 109%

**Q.** Which viability at 28.5 h, 10 µM does the source give for `O=C(O)C(Cc1ccc(O)cc1)c1ccccc1` (stereo not drawn) [CBK012287] here?
**A.** 84.7%

**Q.** For `O=C(c1ccco1)N1CCC2(CC1)OCc1cc(Cl)ccc1O2` [CBK061068], which viability at 28.5 h, 10 µM (bulk resorufin, single well) is on record?
**A.** 94.4%

**Q.** For `O=C(COc1cccnc1)N1CCc2ccccc21` [CBK200268], which viability at 28.5 h, 10 µM is on record?
**A.** 107%

**Q.** With `COc1ccc(NC(=N)Nc2nc(=O)cc(CSc3nc4ccccc4s3)[nH]2)cc1` [CBK266256] as the compound, how does the viability at 28.5 h, 10 µM read?
**A.** 101%

**Q.** Which viability at 28.5 h, 10 µM does the source give for `COc1ccc(OC)c(S(=O)(=O)N2CCCC(C(=O)O)C2)c1` (stereo not drawn) [CBK269225] here?
**A.** 95%

**Q.** For `Cn1nccc1C(=O)NC(Cc1ccsc1)c1nccs1` (stereo not drawn) [CBK285138], which viability at 28.5 h, 10 µM is on record?
**A.** 98.1%

**Q.** With `Cn1cc(CCC(=O)N2CCc3[nH]c4ccc(Cl)cc4c3C2)cn1` [CBK304636] as the compound, how does the viability at 28.5 h, 10 µM read?
**A.** 82%

**Q.** Which viability at 28.5 h, 10 µM does the source give for `O=C(NC1CC(=O)N(CCc2ccc(F)cc2)C1)c1cn2ccsc2n1` (stereo not drawn) [CBK307263] here?
**A.** 100%

**Q.** Which viability at 28.5 h, 10 µM does the source give for `CC1=CC(C)C(C(=O)O)C(C(=O)NCc2cccnc2)C1` (stereo not drawn) [CBK293964] here?
**A.** 113%

**Q.** With `O=C(O)C1C(c2ccccc2)C(C(=O)Oc2cccc3ccccc23)C1c1ccccc1` (stereo not drawn) [CBK263869] as the compound, how does the viability at 28.5 h, 10 µM read?
**A.** 110%

**Q.** For `Cc1ccc(SCC(=O)Nc2cc(C)on2)cc1` [CBK057070], which viability at 28.5 h, 10 µM is on record?
**A.** 115%

**Q.** With `COc1ccc(-c2nc(NC(=O)CSc3nnc(C)s3)ns2)cc1` [CBK267290] as the compound, how does the viability at 28.5 h, 10 µM read?
**A.** 96.9%

**Q.** With `c1ccc(OCCN2CCC3(C2)NCCc2[nH]ccc23)cc1` (stereo not drawn) [CBK084595T] as the compound, how does the viability at 28.5 h, 10 µM read?
**A.** 90.9%

**Q.** Which viability at 28.5 h, 10 µM does the source give for `O=C(O)c1ccc(CN2C(=O)c3ccc(C(=O)O)cc3C2=O)cc1` [CBK262823] here?
**A.** 93.7%

**Q.** Which viability at 28.5 h, 10 µM does the source give for `Cc1ccc2c(c1)OC1(CCN(C(=O)c3cc4c(C)nn(C)c4s3)CC1)CC2=O` [CBK166037] here?
**A.** 79.5%

**Q.** Which viability at 28.5 h, 10 µM does the source give for `O=C(CC[C@@H]1CNC(=O)[C@@H]2C[C@H](NC(=O)C3CC3)CN12)Nc1ccccc1` [CBK289006] here?
**A.** 113%

**Q.** Which viability at 28.5 h, 10 µM does the source give for `Cc1cccc(C2NS(=O)(=O)NC2=N)c1` (stereo not drawn) [CBK263868] here?
**A.** 98.3%

**Q.** Which viability at 28.5 h, 10 µM does the source give for `COc1ccc(-c2cnc(N)c(NC3CCOCC3)n2)c(OC)c1OC` [CBK063844] here?
**A.** 113%

**Q.** With `O=C(O)CN1C(=O)C2(CC(=O)N(Cc3ccccc3)C2=O)c2cc(F)ccc21` (stereo not drawn) [CBK076173] as the compound, how does the viability at 28.5 h, 10 µM read?
**A.** 99.3%

**Q.** Which viability at 28.5 h, 10 µM does the source give for `CC(=O)Nc1ccc(S(=O)(=O)N2CCN(c3ccc([N+](=O)[O-])c(NC4C5CC6CC(C5)CC4C6)c3)CC2)cc1` (stereo not drawn) [CBK268802] here?
**A.** 90.5%

**Q.** For `CCn1c(CN2CCOCC2)nnc1SCC(=O)Nc1cc(C)cc(C)c1` [CBK270258], which viability at 28.5 h, 10 µM is on record?
**A.** 95.9%

**Q.** With `O=C(c1ccco1)N1CCN(c2ccc(/C=C/c3ccccc3)cn2)CC1` [CBK037701] as the compound, how does the viability at 28.5 h, 10 µM read?
**A.** 98.7%

**Q.** Which viability at 28.5 h, 10 µM does the source give for `Cc1cc(C(=O)Nc2sc(C)c(C)c2C(=O)NCc2cccnc2)no1` [CBK268134] here?
**A.** 100%

**Q.** Which viability at 28.5 h, 10 µM does the source give for `FC(F)(F)c1nc2ccccc2nc1OC1CCOC1` (stereo not drawn) [CBK115806] here?
**A.** 99.6%

**Q.** For `OCCc1ccc(Oc2ncc(C(F)(F)F)cc2Cl)cc1` [CBK161643], which viability at 28.5 h, 10 µM is on record?
**A.** 94.6%

**Q.** With `N#Cc1cccnc1N1CC2COCCC2(C(=O)N2CCC=C(F)C2)C1` (stereo not drawn) [CBK304744] as the compound, how does the viability at 28.5 h, 10 µM read?
**A.** 91.5%

**Q.** Which viability at 28.5 h, 10 µM does the source give for `COc1ccc([N+](=O)[O-])cc1-c1ccc(/C=N/NC(=O)Cn2nnnc2N)o1` [CBK262505] here?
**A.** 92.2%

**Q.** With `c1ccc2c(c1)CCN(Cc1ccc3ccccc3c1)C2` [CBK126397] as the compound, how does the viability at 28.5 h, 10 µM read?
**A.** 122%

**Q.** With `c1csc(-c2nccnc2OC2CCCCC2)c1` [CBK107060] as the compound, how does the viability at 28.5 h, 10 µM read?
**A.** 90.2%

**Q.** Which viability at 28.5 h, 10 µM does the source give for `Cn1nc(C(=O)NCCSc2n[nH]c(=O)[nH]c2=O)c2ccccc2c1=O` [CBK297501] here?
**A.** 79.1%

**Q.** Which viability at 28.5 h, 10 µM does the source give for `Fc1cccc(-c2nccnc2NCC2CC2)c1` [CBK036767] here?
**A.** 94.4%

**Q.** Which viability at 28.5 h, 10 µM does the source give for `Cc1cc(NC(=O)c2cc(Cl)ccc2[N+](=O)[O-])nc2c1c(=O)oc1ccccc12` [CBK291248] here?
**A.** 85.9%

**Q.** Which viability at 28.5 h, 10 µM does the source give for `CC(C)(C)NC(=O)C1C2CCC3(CC(=O)c4ccccc4O3)C21` (stereo not drawn) [CBK284821] here?
**A.** 81.8%
